Measurements reported in patent US10894785B2, “Piperidine derivatives for use in the treatment of pancreatic cancer” (CENTRE HOSPITALIER UNIVERSITAIRE VAUDOIS CHUV, priority 2016, dated 2021).

Legend:
[1] = test system: pancreatic ductal adenocarcinoma (Panc-1); assay: Anti-tumor activity on Panc-1: cell viability by sulforhodamine or MTT assay; type: cell-based; details: Homo sapiens, Panc-1 cells, 96 hours treatment, 0.001-1000 nM
Experimental: The compounds according to the present invention were evaluated for their anti-tumor activities on pancreatic ductal adenocarcinoma (Panc-1). To this end, 0.5×10^6 human malignant cells were treated with various concentrations (0.001-1000 nM) for 96 hours of FK866 or the compounds according to the present invention. Subsequently cell viability was determined using either sulforhodamine assays as described in Caffa I, et al. (Oncotarget. 2015 May 20; 6(14):11820-32) or MTT assays. Sulforhodamine B is a dye able that binds to cellular proteins. […] For MTT assays, human malignant cells were plated in triplicate on 96-well plates and treated as mentioned above. After 96 hours of incubation, 15 μL of dye solution was added to each well and cells were incubated for an additional 4 hours. Stop solution (100 μL/well) was added for 1 hour and the absorbance was read at 570 nm on a spectrophotometer. To confirm whether the cytotoxicity exerted by these compounds involves programmed cell death, drug-induced cell death was evaluated using annexin V and 7AAD double staining as described by the manufacturer for assessing apoptosis or autophagic-cell death using a Beckman Coulter Cytomics Gallios flow cytometer. Dead cells were identified as annexinV+ and/or 7AAD+. GraphPad Prism version 7.00 (GraphPad Software, San Diego, Calif.) was used for IC50 calculation.

[2] = Pharmacokinetics after intraperitoneal administration in female SCID mice (plasma, LC-MS/MS, non compartmental analysis); type: in vivo; details: 20 mg/kg IP; for CL: CL calculated as dose/AUC; for Percentage of extrapolated AUC from T6 h to infinity: relative to AUC0-inf; for T1/2α: t½α (0 -> 6 h); for T1/2β: t½β (6 -> 24 h); for Cmax / Tmax / AUC(0-inf) / AUC(0-t): mouse; for AUC(0-inf): log-trapezoidal rule, extrapolated to infinity; for AUC(0-t): read-out: AUC0-8 h
Experimental: The pharmacokinetics parameters of FK866, FE1199, VAL22-2 and MPM07 were determined following intraperitoneal administration (IP) in female SCID mice.
• SCID (Severe Combined ImmunoDeficiency) mice female total 144 • 25 mM in DMSO (dimethylsulfoxyde) of each test drug • Saline solution (0.9%)
Test drugs were dissolved in saline solution at 20 mg/ml. All dosing solutions were controlled by HPLC (High-Performance Liquid Chromatography) analysis. Mouse weight is estimated around 20 g.
Three mice per time point were used in each group.
Blood samples were collected on citrate at 10 min, 30 min, 1 h, 2 h, 4 h, 6 h, 8 h and 24 hours after drug administration. Following centrifugation, resulting plasma was stored at […] pending bioanalysis. Samples were analyzed by LC-MS/MS (Liquid chromatography tandem-mass spectrometry); the lower limit of quantification achieved was between 3 and 12 nM depending on drug. Non compartmental pharmacokinetic analysis was performed on plasma concentration data.

Structure (SMILES) | IC50 [1] | CL [2] | Percentage of extrapolated AUC from T6 h to infinity ([2]; plasma) | T1/2α ([2]; plasma) | T1/2β ([2]; plasma) | Cmax ([2]; plasma) | Tmax ([2]; plasma) | AUC(0-inf) ([2]; plasma) | AUC(0-t) ([2]; plasma) | half-lives in the second phase (6 h→24 h) compared with FK866 ([2]; plasma, versus FK866)
O=C(/C=C/c1cccnc1)NCCCCC1CCN(C(=O)c2ccccc2)CC1 [FK866, (E)-N-[4-(1-benzoylpiperidin-4-yl)butyl]-3-(pyridin-3-yl)acrylamide, reference compound] | 18.4 nM | 9.6 mL/h | 1.2% | 27.6 min | 229 min | 28100 ng/mL | 10 min | 20800 ng·h/mL | 20700 ng·h/mL | –
O=C(/C=C/c1cccnc1F)NCCCCC1CCN(C(=O)c2cccs2)CC1 [MPM-07] | 1.5 nM | 38.5 mL/h | 2.0% | 21.6 min | 1535 min | 13200 ng/mL | 10 min | 5200 ng·h/mL | 5110 ng·h/mL | improved and longer half-lives
